Laboratory results published in patent US11951134B2, “Cationic platelet lysate compositions and related methods” (North Carolina State University, priority 2019, dated 2024).

How the values were obtained:
[1] = tested on: all isolates used in this study; experiment: Antimicrobial susceptibility by microbroth dilution; assay type: cell-based
Text: The laboratory strain of Staphylococcus aureus, ATCC 25923, was used to initially screen the different PRP formulations. Significant findings were then validated using clinical isolates derived from cases of equine septic arthritis collected by the University of Pennsylvania School of Veterinary Medicine New Bolton Center Clinical Microbiology Laboratory and processed in accordance with their Standard Operating Procedures. In vitro antimicrobial susceptibility testing and microbial identification was performed using the ARIS Sensititre™ system, using the equine (EQUIN1F) antimicrobial susceptibility panel for veterinary organisms. Bacteria were saved in frozen stocks on glycerol at −80° C. Blood agar plates were streaked from frozen stocks and used for in vitro experiments for a maximum of 1 month. […]
Synovial fluid pooled from three horses (n=3) was infected at 1×10^5 CFU/mL for Staphylococcus aureus (ATCC 25923) or for each clinical isolate (Staphylococcus aureus, Streptococcus zooepidemicus, Pseudomonas aeruginosa, and Escherichia coli) and incubated for 2 hours at 37° C. in a microaerophilic chamber on a shaker at 120 rpm to allow for […] formation. […] Bacterial load was measured using serial dilutions and plate counting of colony forming units. […]

[2] = tested on: S. aureus (ATCC 25923) infected tarsocrural joint; experiment: Equine S. aureus infectious arthritis model (BIO-PLY 5 mL + 500 mg amikacin vs 500 mg amikacin + saline, intra-articular daily for 7 days); assay type: in vivo, horse; details: end-term (day 24; legend b39: day 23-24); BIO-PLY + amikacin group vs amikacin alone group, n=6 each
Text: Subsequently, the in vitro findings were translated into an in vivo equine model of S. aureus-induced infectious arthritis. Using this model, it was hypothesized that the combination of BIO-PLY and amikacin will decrease bacterial burden and improve outcome parameters in an equine S. aureus infectious arthritis model compared to horses treated with amikacin alone. A highly concentrated (>50 fold), pooled PRP-L was generated from 8 healthy donor horses and processed to have the anionic fraction, including fibrinogen, removed and passed through a 10 kDa molecular weight cutoff filter to remove proteins […] termed BIO-PLY as stated above (IACUC protocol #16-189 of NC State University, Raleigh, N.C.). […]
All horses received systemic antimicrobials (potassium penicillin and gentamicin) for 10 days post-infection as well as a tapering course of phenylbutazone for the duration of the study. Physical examinations were performed daily and pain scores based on lameness, hock swelling, distal limb swelling, pain to palpation, and presence of heat were calculated at days 0-7, 14 and 21. […] Synovial fluid was collected on day 0-7 and assessed for total protein (TP), total nucleated cell count (TNCC), cellular differential, and bacterial load determination, as well as biomarker analysis (EMD Millipore MILLIPLEX MAP Equine Cytokine/Chemokine Magnetic Bead Panel). […]

With `NCC[C@H](O)C(=O)N[C@@H]1C[C@H](N)[C@@H](O[C@H]2O[C@H](CN)[C@@H](O)[C@H](O)[C@H]2O)[C@H](O)[C@H]1O[C@H]1O[C@H](CO)[C@@H](O)[C@H](N)[C@H]1O` [amikacin] the “susceptibility of isolates to amikacin” value [1] was “susceptible” and the “bacteria within the synovial tissue at end-term” value [2] was 80.95±58.77 CFU/g tissue.
